Series [1] is described as follows: Accelerated degradation of lyophilized auristatin formulations. The series is classed as physicochemical. The note with it: 55° C. for up to 264 hours. The procedure:
The APIs were dissolved in the lyophilization buffer which contained 2-HPβCD, 10 mM sodium citrate pH 6.2, 50% tert-butyl alcohol (V/V)). For the AE-Keto derivatives 2% (w/v) 2-HPβCD was employed to dissolve the AE-Keto APIs at 1.27 mM concentration; for the AE-Ester derivatives 4% (w/v) 2-HPβCD was used to dissolve the APIs at 1.05 mM concentration. The dissolved APIs were sterile filtered using an Acrodisc Fluorodyne II syringe filter (0.2 μm). The sterile solutions were pipetted into lyophilization vials which were then partially sealed using a rubber stopper. The vials were subsequently placed into the freeze dryer for lyophilization. The vials were frozen on the freeze dryer shelf at −40° C. for 2 hours, after 2 hours main drying was started. Main drying was run for 26 hours, parameters: shelf temperature −20° C., vacuum 0.0048 mbar. After main drying, final drying was initiated. Final drying was run for 16 hours, parameters: shelf temperature 20° C., vacuum 0.0047 mbar. […]
The sealed vials were incubated at 55° C. using an Eppendorf Thermomixer C with a plate insert (Smartblock) and lid. […] Stability of the APIs was determined by HPLC (method 8, 254 nm for AE-Keto derivatives, 310 nm for AE-Ester derivatives). The percentage of maleimide hydrolysis at each time point was determined by comparison to the AUC for each API at time 0.

Series [2] relates to renal cell cancer model RXF631. Put plainly: Human renal cell cancer model RXF631, small tumors. The series is classed as in vivo, NMRI nude mice. An excerpt: Mice were kept under a 14-hour light/10-hour dark, artificial light cycle. The animals were fed with autoclaved Teklad Global 19% Protein Extruded Diet (T.2019S.12) from Envigo RMS SARL and had access to sterile filtered and acidified (pH 2.5) tap water which was changed twice weekly. Feed and water were provided ad libitum. […] Animals were routinely monitored twice daily on working days and daily on Saturdays and Sundays. Starting on day 0, animals were weighed twice a week. Relative body weights (RBW) of individual animals were calculated by dividing the individual absolute body weight on day X (BWx) by the individual body weight on the day of randomization multiplied by 100%. […] Tumor volumes were calculated according to the following equation: […]
Statistical analysis was only carried out if at least 50% of the initially randomized animals in a relevant group were still alive. Comparisons between test groups were carried out for the same days. By convention, p-values ≤0.05 indicate significance of tumor inhibition. Statistical calculations were performed using GraphPad Prism bioanalytic software (San Diego Calif. USA, www.graphpad.com).
The initial evaluation of auristatin E and the albumin-binding auristatin E derivative AE-Ester-Sulf07 in a human renal cell cancer model RXF631 was carried out as described in the general procedure for a patient-derived xenograft model.

The subject of series [3] is panel of 6 selected human cancer cell lines (LXFL 1674L, SW-620, CAL-27, RKO, MDA-MB-468, SK-OV-3). Put plainly: IC50 determination in a panel of tumor cell lines (CellTiter-Blue Cell Viability assay). The series is classed as cell-based. The note with it: geometric mean over six cell lines, 96 h treatment; read-out: Geometric mean IC50. The procedure: Samples were provided to Charles River Discovery Research Services Germany GmbH as frozen stock solutions in pharmaceutical grade DMSO (Sigma-Aldrich, Taufkirchen, Germany). On each day of the experiment, a frozen aliquot of stock solution was thawed. Subsequent serial dilutions were realized with complete RPMI 1640 cell culture medium using an intermediate dilution plate. 10 μL taken from the intermediate dilution plate were then transferred to 140 μL/well of the cell culture plate. Cells were treated with the test compounds at 10 concentrations in triplicate in half-log steps from 0.003 nM to 100 nM for a period of 96 h.
The compounds were tested in a panel of 6 selected human cancer cell lines by using CellTiter-Blue® Cell Viability assay (Promega, Mannheim, Germany). IC values are reported as absolute IC50 values, obtained for a test compound as the geometric mean of IC50 values over all cell lines tested.
The cell lines used were LXFL 1674L (established from patient-derived xenograft at Charles River Discovery Research Services Germany GmbH), SW-620 (kindly provided by the NCI, Bethesda, Md., USA), CAL-27 (purchased from DSMZ, Deutsche Sammlung von Mikroorganismen und Zellkulturen, Braunschweig, Germany), RKO, MDA-MB-468, and SK-OV-3 (from ATCC, American Type Culture Collection, Rockville, Md., USA). Authenticity of all cell lines was proven at the DSMZ by STR (short tandem repeat) analysis, a PCR based DNA-fingerprinting methodology. Cell lines were routinely passaged once or twice weekly and maintained in culture for up to 20 passages. Cells were grown at 37° C. in a humidified atmosphere with 5% CO2 in RPMI 1640 medium (25 mM HEPES, with L-glutamine, Biochrom, Berlin, Germany) supplemented with 10% (v/v) fetal calf serum (Sigma-Aldrich, Taufkirchen, Germany) and 0.1 mg/mL gentamicin (Life Technologies, Karlsruhe, Germany). The CellTiter-Blue® Cell Viability Assay was used according to manufacturer's instructions. Briefly, cells were harvested from exponential phase cultures, counted and plated in 96-well flat-bottom microtiter plates at a cell density of 4,000-10,000 cells/well depending on the cell line's growth rate. After a 24 h recovery period to allow the cells to resume exponential growth, 10 μL of culture medium (six control wells/plate) or of culture medium with test compound were added. The compounds were applied at 10 concentrations in triplicate in half-log increments up to 100 nM and cells were treated continuously for 96 h. […] Following an incubation period of up to 4 h, fluorescence (FU) was measured by using the Enspire Multimode Plate Reader (excitation λ=531 nm, emission λ=615 nm). IC50 values were determined with GraphPad Prism bioanalytic software (San Diego, Calif., USA).

Consider “2-(2-(1-(4-(((1S,2R)-2-((2R,3R)-3-((S)-1-((3R,4R,5S)-4-((S)-2-((R)-2-(dimethylamino)-3-methylbutanamido)-N,3-dimethylbutanamido)-3-methoxy-5-methylheptanoyl)pyrrolidin-2-yl)-3-methoxy-2-methylpropanamido)-1-phenylpropoxy)carbonyl)phenyl)ethylidene)hydrazine-1-carbonyl)-5-(6-(2,5-dioxo-2,5-dihydro-1H-pyrrol-1-yl)hexanamido)benzenesulfonic acid [AE-Ester-Sulf07]”, for which the “stability under accelerated degradation conditions (maleimide hydrolysis)” value in series [1] is reported as “more stable than the respective EMCH derivatives”. For the same molecule, the minimum tumor volume in series [2] (2.2 mg/kg (3.0 mg/kg on day 15 and 19) twice weekly) is listed as 1 mm^3. Further, the tumor response result in series [2] (2.2 mg/kg (3.0 mg/kg on day 15 and 19) twice weekly, day 24 to day 53) is “complete remission (complete remission <10%)”. Also, the “p, antitumor efficacy versus auristatin E” value in series [2] (2.2 mg/kg (3.0 mg/kg on injection day 15 and 19) versus auristatin E 0.3 mg/kg, twice weekly) is under 0.05. For the same molecule, the side effects result in series [2] (2.2-3.0 mg/kg twice weekly) was “Wounds due to biting and scratching were also observed starting from day 17”. Also, the animals lost result in series [2] (2.2-3.0 mg/kg, on day 20, 43 and 66) is “Two mice died, and one had to be sacrificed for general bad conditions”. In addition, in series [2] (2.2-3.0 mg/kg, reached on day 31), the “transient body weight loss” value worked out at 9%.

Take `CC[C@H](C)[C@@H]([C@@H](CC(=O)N1CCC[C@H]1[C@H](OC)[C@@H](C)C(=O)N[C@H](C)C(=NNC(=O)c1ccc(NC(=O)CCCCCN2C(=O)C=CC2=O)cc1S(=O)(=O)O)c1ccccc1)OC)N(C)C(=O)[C@@H](NC(=O)[C@H](C(C)C)N(C)C)C(C)C` [AE-Keto-Sulf07, 2-(2-((R)-2-((2R,3R)-3-((S)-1-((3R,4S,5S)-4-((S)-2-((S)-2-(dimethylamino)-3-methylbutanamido)-N,3-dimethylbutanamido)-3-methoxy-5-methylheptanoyl)pyrrolidin-2-yl)-3-methoxy-2-methylpropanamido)-1-phenylpropylidene)hydrazine-1-carbonyl)-5-(6-(2,5-dioxo-2,5-dihydro-1H-pyrrol-1-yl)hexanamido)benzenesulfonic acid]: the “stability under accelerated degradation conditions (maleimide hydrolysis)” value in series [1] is reported as “more stable than the respective EMCH derivatives”.

On to `CC[C@H](C)[C@@H]([C@@H](CC(=O)N1CCC[C@H]1[C@H](OC)[C@@H](C)C(=O)N[C@H](C)[C@@H](O)c1ccccc1)OC)N(C)C(=O)[C@@H](NC(=O)[C@H](C(C)C)N(C)C)C(C)C` [auristatin E], for which the IC50 in series [3] was determined as 0.13 nM. In series [2] (0.3 mg/kg twice weekly, up to day ˜40), the tumor response entry is listed as “stable disease (stable disease >75-125%)”.

By IC50 is commonly meant the concentration that gives 50% inhibition.
